Measurements taken from ChEMBL document CHEMBL5465560, “Selectivity Literature for EUbOPEN Chemogenomic Library” (2024).
pIC50: −log10 of the molar value.

Key:
[1] = molecular target: Tyrosine-protein kinase receptor UFO (Homo sapiens) (UniProt P30530); experiment: Selectivity interaction (KinomeScan (DiscoverX)) EUB0000666a AXL; conditions: at 10 µM
[2] = molecular target: 5-hydroxytryptamine receptor 1A (Homo sapiens, UniProt P08908); experiment: Selectivity interaction (Serotonin 5HT1A Calcium flux assay, agonist and antagonist mode ) EUB0000877a HTR1A
[3] = molecular target: Glycogen synthase kinase-3 beta (Homo sapiens, UniProt P49841); experiment: Selectivity interaction (SelectScreen profiling (Invitrogen)) EUB0000607a GSK3B; conditions: at 2 µM
[4] = molecular target: NT-3 growth factor receptor (Homo sapiens, UniProt Q16288); experiment: Selectivity interaction (SelectScreen profiling (Invitrogen)) EUB0000607a NTRK3; conditions: at 2 µM
Sequence of NT-3 growth factor receptor (Q16288 32-839 limits assumed): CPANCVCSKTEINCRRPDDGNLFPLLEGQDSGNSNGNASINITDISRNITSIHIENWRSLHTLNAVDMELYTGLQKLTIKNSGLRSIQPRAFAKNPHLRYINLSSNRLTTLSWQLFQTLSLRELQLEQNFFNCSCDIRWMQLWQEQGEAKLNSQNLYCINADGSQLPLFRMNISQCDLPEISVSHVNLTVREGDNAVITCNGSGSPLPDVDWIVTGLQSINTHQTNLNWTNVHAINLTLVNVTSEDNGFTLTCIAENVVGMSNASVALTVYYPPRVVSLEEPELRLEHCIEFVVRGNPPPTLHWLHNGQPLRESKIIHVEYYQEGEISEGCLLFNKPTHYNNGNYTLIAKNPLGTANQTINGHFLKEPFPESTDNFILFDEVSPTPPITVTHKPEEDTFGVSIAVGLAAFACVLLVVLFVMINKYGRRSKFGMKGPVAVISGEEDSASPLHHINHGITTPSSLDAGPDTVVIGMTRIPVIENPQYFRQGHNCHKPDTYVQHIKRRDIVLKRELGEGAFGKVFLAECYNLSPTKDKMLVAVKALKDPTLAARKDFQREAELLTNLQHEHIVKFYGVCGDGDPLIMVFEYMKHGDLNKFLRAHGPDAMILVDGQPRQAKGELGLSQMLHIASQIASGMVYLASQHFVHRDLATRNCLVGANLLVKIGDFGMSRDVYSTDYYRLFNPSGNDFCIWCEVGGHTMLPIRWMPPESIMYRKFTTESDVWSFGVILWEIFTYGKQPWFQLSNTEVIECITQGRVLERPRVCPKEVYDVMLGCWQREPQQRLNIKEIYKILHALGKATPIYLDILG

[5] = molecular target: Cyclin-dependent kinase 7/ cyclin H (Homo sapiens) (UniProt P51946+P50613); experiment: Selectivity interaction (Upstate Kinase Profiler service (Millipore)) EUB0000056c CDK7; format: protein-complex assay; conditions: at 1 µM
[6] = molecular target: T1, Serine/threonine-protein kinase Nek9 (Homo sapiens) (UniProt Q8TD19); experiment: Selectivity interaction (ActivX KiNativ screen (kinase selectivity in THP-1 cell lysates)) EUB0000639a NEK9; format: subcellular; conditions: lysate, at 0.04 µM
T1 sequence (whole entry): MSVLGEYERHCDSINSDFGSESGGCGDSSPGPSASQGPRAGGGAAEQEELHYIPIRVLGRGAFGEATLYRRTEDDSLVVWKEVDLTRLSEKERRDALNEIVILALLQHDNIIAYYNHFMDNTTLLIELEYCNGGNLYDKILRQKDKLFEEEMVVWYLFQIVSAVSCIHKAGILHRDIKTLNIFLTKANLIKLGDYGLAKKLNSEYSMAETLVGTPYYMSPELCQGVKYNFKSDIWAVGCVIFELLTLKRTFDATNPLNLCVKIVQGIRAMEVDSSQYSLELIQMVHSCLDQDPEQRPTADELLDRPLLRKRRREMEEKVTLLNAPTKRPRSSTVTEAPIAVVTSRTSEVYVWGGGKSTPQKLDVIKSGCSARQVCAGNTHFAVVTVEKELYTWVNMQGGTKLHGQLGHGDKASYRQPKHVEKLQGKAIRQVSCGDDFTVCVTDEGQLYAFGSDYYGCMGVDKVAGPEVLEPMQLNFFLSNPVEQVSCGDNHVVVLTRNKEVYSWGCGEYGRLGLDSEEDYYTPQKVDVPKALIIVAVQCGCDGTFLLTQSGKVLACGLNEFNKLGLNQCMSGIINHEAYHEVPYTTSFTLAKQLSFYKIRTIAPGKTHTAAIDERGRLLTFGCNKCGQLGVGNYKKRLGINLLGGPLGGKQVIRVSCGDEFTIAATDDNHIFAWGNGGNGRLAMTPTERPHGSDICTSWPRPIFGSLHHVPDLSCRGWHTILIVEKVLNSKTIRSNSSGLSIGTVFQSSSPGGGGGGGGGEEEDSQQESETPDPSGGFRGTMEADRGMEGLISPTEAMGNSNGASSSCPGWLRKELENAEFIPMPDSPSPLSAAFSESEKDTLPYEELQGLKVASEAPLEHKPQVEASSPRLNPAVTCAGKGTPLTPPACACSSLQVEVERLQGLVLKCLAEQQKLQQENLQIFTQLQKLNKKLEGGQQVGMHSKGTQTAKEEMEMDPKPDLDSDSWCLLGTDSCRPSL

[7] = molecular target: Serine/threonine-protein kinase PLK2 (Homo sapiens, UniProt Q9NYY3); experiment: Selectivity interaction (ProQinase) EUB0000171b PLK2
Sequence of Serine/threonine-protein kinase PLK2 (Q9NYY3 whole entry, looked up): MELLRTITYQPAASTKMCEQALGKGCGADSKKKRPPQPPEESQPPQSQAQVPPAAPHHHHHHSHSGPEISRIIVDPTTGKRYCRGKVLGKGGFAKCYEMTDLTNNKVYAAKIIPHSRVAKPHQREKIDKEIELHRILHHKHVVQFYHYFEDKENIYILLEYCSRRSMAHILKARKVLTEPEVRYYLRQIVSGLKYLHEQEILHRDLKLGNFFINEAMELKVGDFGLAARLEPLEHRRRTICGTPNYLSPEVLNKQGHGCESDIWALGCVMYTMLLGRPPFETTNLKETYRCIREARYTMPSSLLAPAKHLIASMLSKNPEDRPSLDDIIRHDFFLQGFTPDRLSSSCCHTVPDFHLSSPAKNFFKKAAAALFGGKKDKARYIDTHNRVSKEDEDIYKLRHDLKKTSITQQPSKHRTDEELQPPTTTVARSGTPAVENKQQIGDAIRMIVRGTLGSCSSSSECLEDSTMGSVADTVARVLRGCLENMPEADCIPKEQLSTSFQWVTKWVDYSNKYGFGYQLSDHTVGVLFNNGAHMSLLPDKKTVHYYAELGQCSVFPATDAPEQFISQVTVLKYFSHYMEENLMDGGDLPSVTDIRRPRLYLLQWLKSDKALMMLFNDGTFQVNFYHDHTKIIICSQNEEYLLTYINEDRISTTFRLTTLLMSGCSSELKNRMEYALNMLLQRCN

SRSF protein kinase 1 = SRSF protein kinase 1 (Homo sapiens, UniProt Q96SB4); experiment: Selectivity interaction (ProQinase) EUB0000171b SRPK1
Sequence of SRSF protein kinase 1 (Q96SB4 whole entry, canonical isoform): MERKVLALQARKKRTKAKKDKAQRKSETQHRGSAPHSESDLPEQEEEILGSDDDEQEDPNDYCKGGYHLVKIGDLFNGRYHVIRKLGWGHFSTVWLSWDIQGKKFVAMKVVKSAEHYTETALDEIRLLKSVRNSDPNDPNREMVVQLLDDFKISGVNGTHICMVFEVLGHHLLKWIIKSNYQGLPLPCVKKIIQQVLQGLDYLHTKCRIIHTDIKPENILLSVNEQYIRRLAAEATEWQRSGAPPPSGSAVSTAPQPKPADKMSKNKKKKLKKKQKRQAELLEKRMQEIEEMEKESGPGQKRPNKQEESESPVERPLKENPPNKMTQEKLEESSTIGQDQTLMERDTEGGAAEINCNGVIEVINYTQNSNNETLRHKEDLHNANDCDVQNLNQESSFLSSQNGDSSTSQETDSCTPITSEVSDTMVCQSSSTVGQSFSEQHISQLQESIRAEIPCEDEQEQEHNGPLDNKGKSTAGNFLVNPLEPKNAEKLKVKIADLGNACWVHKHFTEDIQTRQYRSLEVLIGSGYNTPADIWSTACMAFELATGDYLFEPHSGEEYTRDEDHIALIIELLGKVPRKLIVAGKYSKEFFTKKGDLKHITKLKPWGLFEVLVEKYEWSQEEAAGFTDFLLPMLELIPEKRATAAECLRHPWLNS

[8] = test system: Phosphatidylinositol 4,5-bisphosphate 3-kinase catalytic subunit alpha isoform (Homo sapiens), P42336 [E542K]; conditions: at 10 µM
Sequence of Phosphatidylinositol 4,5-bisphosphate 3-kinase catalytic subunit alpha isoform (Homo sapiens), P42336 [E542K] (P42336 whole entry E542K, canonical isoform): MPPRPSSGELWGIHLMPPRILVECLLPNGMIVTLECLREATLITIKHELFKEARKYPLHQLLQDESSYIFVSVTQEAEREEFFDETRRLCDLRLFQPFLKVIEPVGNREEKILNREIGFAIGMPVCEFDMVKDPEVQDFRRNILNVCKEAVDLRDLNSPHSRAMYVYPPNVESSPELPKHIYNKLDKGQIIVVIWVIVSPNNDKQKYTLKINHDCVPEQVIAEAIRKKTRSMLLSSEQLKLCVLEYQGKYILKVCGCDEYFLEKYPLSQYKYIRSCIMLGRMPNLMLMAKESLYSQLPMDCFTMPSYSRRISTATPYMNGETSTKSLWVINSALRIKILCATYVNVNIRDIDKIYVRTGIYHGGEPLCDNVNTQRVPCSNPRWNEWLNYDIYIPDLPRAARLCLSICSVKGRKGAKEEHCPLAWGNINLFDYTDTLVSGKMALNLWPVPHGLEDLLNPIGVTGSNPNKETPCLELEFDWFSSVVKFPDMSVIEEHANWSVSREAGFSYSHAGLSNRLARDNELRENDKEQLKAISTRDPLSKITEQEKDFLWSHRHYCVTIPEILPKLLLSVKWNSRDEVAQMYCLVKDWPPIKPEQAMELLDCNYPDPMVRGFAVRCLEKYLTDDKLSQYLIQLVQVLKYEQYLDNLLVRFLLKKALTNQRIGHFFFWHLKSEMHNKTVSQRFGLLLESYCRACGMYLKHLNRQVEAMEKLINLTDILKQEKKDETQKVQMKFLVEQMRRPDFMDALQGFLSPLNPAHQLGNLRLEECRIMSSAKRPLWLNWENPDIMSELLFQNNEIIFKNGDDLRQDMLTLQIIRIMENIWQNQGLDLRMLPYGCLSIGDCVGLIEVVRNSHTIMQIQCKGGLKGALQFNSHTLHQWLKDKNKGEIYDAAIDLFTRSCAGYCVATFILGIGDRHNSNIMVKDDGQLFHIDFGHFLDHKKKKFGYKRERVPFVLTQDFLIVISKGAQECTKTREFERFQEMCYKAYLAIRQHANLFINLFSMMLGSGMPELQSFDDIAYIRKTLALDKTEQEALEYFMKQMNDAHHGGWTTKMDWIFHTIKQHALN

[9] = molecular target: Platelet-derived growth factor receptor alpha (Homo sapiens, UniProt P16234); experiment: Selectivity interaction (Kinase screening (Upstate/Millipore)) EUB0000604a PDGFRA
Sequence of Platelet-derived growth factor receptor alpha (P16234 whole entry): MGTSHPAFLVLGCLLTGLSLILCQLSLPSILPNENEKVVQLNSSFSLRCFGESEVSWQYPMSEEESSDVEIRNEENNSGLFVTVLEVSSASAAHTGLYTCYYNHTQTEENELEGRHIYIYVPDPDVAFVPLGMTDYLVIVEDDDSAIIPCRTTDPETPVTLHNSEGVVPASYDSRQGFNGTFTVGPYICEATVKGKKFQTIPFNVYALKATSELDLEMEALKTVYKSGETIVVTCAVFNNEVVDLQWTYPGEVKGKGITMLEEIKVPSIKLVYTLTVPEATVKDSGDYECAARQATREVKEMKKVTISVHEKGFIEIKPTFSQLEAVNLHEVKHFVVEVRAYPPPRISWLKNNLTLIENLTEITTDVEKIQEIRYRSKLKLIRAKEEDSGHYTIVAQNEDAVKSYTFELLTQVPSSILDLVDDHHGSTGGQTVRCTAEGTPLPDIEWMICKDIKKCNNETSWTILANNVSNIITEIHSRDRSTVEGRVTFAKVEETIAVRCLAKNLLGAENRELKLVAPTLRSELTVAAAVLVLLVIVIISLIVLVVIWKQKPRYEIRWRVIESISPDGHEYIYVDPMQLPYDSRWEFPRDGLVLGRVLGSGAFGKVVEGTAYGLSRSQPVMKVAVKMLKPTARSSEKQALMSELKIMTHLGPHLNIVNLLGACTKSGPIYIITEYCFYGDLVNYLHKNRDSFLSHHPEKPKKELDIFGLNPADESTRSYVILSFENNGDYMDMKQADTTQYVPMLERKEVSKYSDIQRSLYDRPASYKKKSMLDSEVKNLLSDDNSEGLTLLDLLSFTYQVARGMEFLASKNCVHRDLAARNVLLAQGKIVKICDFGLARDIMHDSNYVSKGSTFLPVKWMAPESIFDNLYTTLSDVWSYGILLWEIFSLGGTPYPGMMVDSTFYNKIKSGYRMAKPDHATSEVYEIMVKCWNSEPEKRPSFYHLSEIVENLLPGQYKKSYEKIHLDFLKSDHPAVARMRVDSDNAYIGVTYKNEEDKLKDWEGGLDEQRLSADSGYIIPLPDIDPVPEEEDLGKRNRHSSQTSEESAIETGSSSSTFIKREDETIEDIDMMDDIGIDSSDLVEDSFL

[10] = molecular target: Serine/threonine-protein kinase PLK3 (Homo sapiens, UniProt Q9H4B4)
Activated CDC42 kinase 1 = Activated CDC42 kinase 1 (Homo sapiens, UniProt Q07912); experiment: Selectivity interaction (Kinase panel (KiNativ target engagement assay in Jurkat cells)) EUB0001635a TNK2; format: cell-based; conditions: Selectivity number of off-targets 0.0, Selectivity number of targets 233.0, Source Knowledge https://www.sciencedirect.com/science/article/pii/S2451945619300674?via%3Dihub, at 1 µM
[11] = molecular target: Tyrosine-protein kinase ABL2 (Homo sapiens, UniProt P42684); conditions: at 10 µM
[12] = molecular target: Serine/threonine-protein kinase PAK 4 (Homo sapiens, UniProt O96013); experiment: Selectivity interaction (KinomeScan (DiscoverX)) EUB0001619a PAK4; conditions: at 1 µM
Sequence of Serine/threonine-protein kinase PAK 4 (O96013 whole entry, looked up): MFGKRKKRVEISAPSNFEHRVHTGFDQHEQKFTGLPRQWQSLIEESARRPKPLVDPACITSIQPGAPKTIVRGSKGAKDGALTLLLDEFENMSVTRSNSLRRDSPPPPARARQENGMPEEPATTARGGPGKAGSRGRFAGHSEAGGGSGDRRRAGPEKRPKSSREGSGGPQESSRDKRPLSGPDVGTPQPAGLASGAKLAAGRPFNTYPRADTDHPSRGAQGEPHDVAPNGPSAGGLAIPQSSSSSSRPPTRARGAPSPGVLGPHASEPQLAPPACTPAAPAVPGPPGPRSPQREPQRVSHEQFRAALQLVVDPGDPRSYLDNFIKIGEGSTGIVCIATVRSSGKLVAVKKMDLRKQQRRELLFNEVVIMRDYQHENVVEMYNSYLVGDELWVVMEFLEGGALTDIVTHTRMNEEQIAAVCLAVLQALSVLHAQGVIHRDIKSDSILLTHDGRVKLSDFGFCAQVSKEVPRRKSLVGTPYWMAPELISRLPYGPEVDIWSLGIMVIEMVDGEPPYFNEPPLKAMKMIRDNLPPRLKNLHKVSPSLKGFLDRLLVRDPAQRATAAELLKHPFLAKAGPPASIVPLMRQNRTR

Structure (SMILES): O=C(NOC[C@H](O)CO)c1ccc(F)c(F)c1Nc1ccc(I)cc1F
- % of control [1]: 83%

Structure (SMILES): CCC(=O)N1CC[C@H](Nc2ncnc3c2CN(c2cnc(OC)c(C(F)(F)F)c2)CC3)C1 [LENIOLISIB]
- pIC50 [2]: < 4.52

Structure (SMILES): CNC(=O)Nc1ccc(-c2nc(N3CC4CCC(C3)O4)c3cnn(C4CCC5(CC4)OCCO5)c3n2)cc1
- % of inhibition [3]: 1%
- % of inhibition [4]: 5%

Structure (SMILES): Cc1ccc(-c2ccc3c(ccc4sc5c(c43)NC[C@@H](C)NC5=O)n2)cn1
- % of inhibition [5]: 5%

Structure (SMILES): CC[C@@H]1[C@H](F)C(=O)N[C@@H]1COc1nccc2cc(C(N)=O)c(OC)cc12 [ZIMLOVISERTIB]
- % of inhibition [6]: 5%

Structure (SMILES): C=CC(=O)Nc1cccc(C(=O)Nc2ccc(Nc3cc(-c4[nH]c(SC)nc4C)ccn3)cc2)c1
- % of control ([7]; at 1 µM): 86%
- % of control ([7]; at 5 µM): 81%
- % of control (SRSF protein kinase 1; at 1 µM): 99%
- % of control (SRSF protein kinase 1; at 5 µM): 86%

Structure (SMILES): COCC(=O)NC/C=C/c1ccc2ncnc(Nc3ccc(Oc4ccc(C)nc4)c(C)c3)c2c1 [CP-724714]
- % of control [8]: 100%

Structure (SMILES): Cc1cnc(Nc2ccc(F)cc2Cl)nc1-c1c[nH]c(C(=O)N[C@H](CO)c2cccc(Cl)c2)c1
- % of inhibition [9]: 3%

Structure (SMILES): CCc1cccc(CC)c1NC(=O)c1nn(C)c2c1CCc1cnc(Nc3ccc(C(=O)NC4CCN(C)CC4)cc3OC(F)(F)F)nc1-2
- pIC50 [10]: < 5.00

Structure (SMILES): C=CC(=O)Nc1ccc(C(=O)Nc2[nH]nc3c2CN(C(=O)N[C@H](CN(C)C)c2ccccc2)C3(C)C)cc1
- % of engagement (Activated CDC42 kinase 1): -3.6%

Structure (SMILES): Cc1cc([C@@H](C)Nc2ccccc2C(=O)O)c2nc(N3CCOCC3)cc(=O)n2c1 [AZD-6482]
- % of control [11]: 95%

Structure (SMILES): N#Cc1cccc(-c2c[nH]c3ncnc(N4CCOCC4)c23)c1
- % of control [12]: 100%
